{"source": "patent US20060069132A1", "about": "“Azolecarboxamide herbicides” (priority 2004, published 2006)", "key": {"blackgrass (ALOMY)": {"test_system": "blackgrass (ALOMY)", "assay": "Test J Compounds 2 and 6 alone and in combination with other herbicides, foliage spray", "assay_type": "in vivo, Alopecurus myosuroides", "parameters": "key: 0 = no effect, 100 = complete control", "conditions": "applied alone", "procedure,_shortened": "(§1)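 Greenhouse plants grown 7–11 days to 2–18 cm (1- to 4-leaf stage) were foliage-sprayed at 541 L/ha with compounds alone or mixed with atrazine, terbacil, hexazinone, diuron or paraquat in aqueous solvent with nonionic surfactant. Three replicates; injury rated visually 15 days after treatment, 0–100 versus untreated controls.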"}, "corn (ZEAMD)": {"test_system": "corn (ZEAMD)", "assay": "Test J Compounds 2 and 6 alone and in combination with other herbicides, foliage spray", "assay_type": "in vivo, Zea mays", "parameters": "key: percentage herbicidal effect (observed)", "conditions": "applied alone", "text": "(§2) Colby's Equation was used to calculate the expected additive herbicidal effect of the mixtures of Compound 6 with Harmony® Extra (i.e. a 2:1 mixture by weight of thifensulfuron-methyl and tribenuron-methyl). Colby's Equation (Colby, S. R. “Calculating Synergistic and Antagonistic Responses of Herbicide Combinations,” Weeds, 15(1), pp 20-22 (1967)) calculates the expected additive effect of herbicidal mixtures, and for two active ingredients is of the form: Pa+b=Pa+Pb−(PaPb/100) wherein • Pa+b is the percentage effect of the mixture expected from additive contribution of the individual components, • Pa is the observed percentage effect of the first active ingredient at the same use rate as in the mixture, and • Pb is the observed percentage effect of the second active ingredient at the same use rate as in the mixture.\n(§3) Seeds of test plants consisting of barnyardgrass (ECHCG; Echinochloa crus-galli (L.) Beauv.), blackgrass (ALOMY; Alopecurus myosuroides Huds.), Surinam grass (BRADC; Urochloa decumbens (Staph) R. D. Webster, previously named Brachiaria decumbens Stapf), cocklebur (XANST, Xanthium strumarium L.), corn (ZEAMD, Zea mays L. cv. ‘Pioneer 33G26’), large crabgrass (DIGSA, Digitaria sanguinalis (L.) Scop.), giant foxtail (SETFA, Setaria faberi Herrm.), lambsquarters (CHEAL, Chenopodium album L.), morningglory (IPOCO, Ipomoea coccinea L.), pigweed (AMARE, Amaranthus retroflexus L.), velvetleaf (ABUTH, Abutilon theophrasti Medik.) wheat (TRZAS, Triticum aestivum L. cv. ‘Recital’) and wild oat (AVEFA, Avena fatua L.) were planted in Redi-Earth® planting medium (Scotts Company, 14111 Scottslawn Road, Marysville, Ohio 43041) comprising spaghnum peat moss and vermiculite. Seeds of small-seeded species were planted about 1 cm deep; larger seeds were planted about 2.5 cm deep. Plants were grown in a greenhouse using supplemental lighting to maintain a photoperiod of about 14 hours; daytime and nighttime temperatures were about 24-30° C. and 22-25° C., respectively. Balanced fertilizer was applied through the watering system. The plants were grown for 7 to 11 days so that at time of treatment the plants ranged in height from 2 to 18 cm (1- to 4-leaf stage). Treatments consisted of Compounds 2 and 6 (technical material), atrazine (90DF), terbacil (Sinbar® 80DF), hexazinone (Velpar® 75WG), diuron (Karmex® 80WP) and paraquat (Gramoxone® Extra, 37%) alone and in combination, suspended or dissolved in an aqueous solvent comprising a nonionic surfactant and applied as a foliage spray using a volume of 541 L/ha. Each treatment was triply replicated. […] Treated plants and controls were maintained in the greenhouse and watered as needed with care to not wet the foliage for the first 24 hours after treatment. The effects on the plants 15 days after treatment were visually compared to untreated controls. Plant response ratings, listed in Table J as the means of the thee replicates, are based on a scale of 0 to 100 where 0 is no effect and 100 is complete control. Also listed in Table J are the expected effects for the mixtures calculated using Colby's Equation."}, "pigweed (AMARE)": {"test_system": "pigweed (AMARE)", "assay": "Test J Compounds 2 and 6 alone and in combination with other herbicides, foliage spray", "assay_type": "in vivo, Amaranthus retroflexus", "parameters": "key: 0 = no effect, 100 = complete control", "conditions": "applied alone", "text": "as §2, §3"}, "velvetleaf (ABUTH)": {"test_system": "velvetleaf (ABUTH)", "assay": "Test J Compounds 2 and 6 alone and in combination with other herbicides, foliage spray", "assay_type": "in vivo, Abutilon theophrasti", "parameters": "key: 0 = no effect, 100 = complete control", "conditions": "applied alone", "procedure,_shortened": "as §1"}, "large crabgrass (DIGSA)": {"test_system": "large crabgrass (DIGSA)", "assay": "Test J Compounds 2 and 6 alone and in combination with other herbicides, foliage spray", "assay_type": "in vivo, Digitaria sanguinalis", "parameters": "key to DIGSA Obsd.: 0 = no effect, 100 = complete control", "conditions": "for DIGSA Obsd.: applied alone; for observed effect of mixture compared with additive effect expected from Colby's Equation: crabgrass, foliage spray, 15 days after treatment", "text": "as §2, §3"}, "lambsquarters (CHEAL)": {"test_system": "lambsquarters (CHEAL)", "assay": "Test J Compounds 2 and 6 alone and in combination with other herbicides, foliage spray", "assay_type": "in vivo, Chenopodium album", "parameters": "key: % herbicidal effect (observed)", "conditions": "applied alone", "text": "as §2, §3"}, "giant foxtail (SETFA)": {"test_system": "giant foxtail (SETFA)", "assay": "Test J Compounds 2 and 6 alone and in combination with other herbicides, foliage spray", "assay_type": "in vivo, Setaria faberi", "parameters": "key: 0 = no effect, 100 = complete control", "conditions": "applied alone", "procedure,_shortened": "as §1"}, "kochia": {"test_system": "kochia", "assay": "Test F pre-/postemergence herbicide test", "assay_type": "in vivo, Kochia scoparia", "text": "(§4) Seeds of plant species selected from annual blugrass (Poa annua L.), blackgrass (Alopecurus myosuroides Huds.), catchweed bedstraw (Gallium aparine L.), common chickweed (Stellaria media (L.) Vill./Cyr.), downy bromegrass (Bromus tectorum L.), green foxtail (Setaria viridis (L.) Beauv.), Italian ryegrass (Lolium multiflorum Lam.), kochia (Kochia scoparia (L.). Schrad.), lambsquarters (Chenopodium album L.), littleseed canarygrass (Phalaris minor Retz.), pigweed (Amaranthus retroflexus L.), Russian thistle (Salsola kali L. ssp. Ruthenica (Iljin) Soo), wild buckwheat (Polygonum convolvulus L.), wild mustard (Sinapis arvensis L.), wild oat (Avena fatua L.), windgrass (Apera spica-venti (L.) Beauv.), winter barley (Hordeum vulgare L.), and wheat (Triticum aestivum L.) were planted and treated preemergence with test chemicals formulated in a non-phytotoxic solvent mixture which included a surfactant.\n(§5) At the same time, plants selected from these crop and weed species were treated with postemergence applications of some of the test chemicals formulated in the same manner. Plants ranged in height from 2 to 18 cm (1- to 4-leaf stage) for postemergence treatments. Treated plants and controls were maintained in a greenhouse for 12 to 14 days, after which time all species were compared to controls and visually evaluated. Plant response ratings, summarized in Table F, are based on a scale of 0 to 100 where 0 is no effect and 100 is complete control. A dash (-) response means no test result."}, "littleseed canarygrass": {"test_system": "littleseed canarygrass", "assay": "Test F pre-/postemergence herbicide test", "assay_type": "in vivo, Phalaris minor", "text": "as §4, §5"}, "wild buckwheat": {"test_system": "wild buckwheat", "assay": "Test F pre-/postemergence herbicide test", "assay_type": "in vivo, Polygonum convolvulus", "conditions": "125 g ai/ha", "text": "as §4\nas §5, with “Plant response ratings, summarized in Table F, are based on a scale of 0 to 100 where 0 is no effect and 100 is complete control. A dash (-) response means no test result.” left out"}, "Russian thistle": {"test_system": "Russian thistle", "assay": "Test F pre-/postemergence herbicide test", "assay_type": "in vivo, Salsola kali", "conditions": "125 g ai/ha", "text": "as §4\nas §5, with “Plant response ratings, summarized in Table F, are based on a scale of 0 to 100 where 0 is no effect and 100 is complete control. A dash (-) response means no test result.” left out"}, "windgrass": {"test_system": "windgrass", "assay": "Test F pre-/postemergence herbicide test", "assay_type": "in vivo, Apera spica-venti", "conditions": "125 g ai/ha", "text": "as §4\nas §5, with “Plant response ratings, summarized in Table F, are based on a scale of 0 to 100 where 0 is no effect and 100 is complete control. A dash (-) response means no test result.” left out"}}}
{"smiles": "CCNC(=O)c1ccc(F)c(NC(=O)c2cc(C(C)(C)C)nn2CC)c1", "note": "[Compound 2, 3-(1,1-dimethylethyl)-1-ethyl-N-[5-[(ethylamino)carbonyl]-2-fluorophenyl]-1H-pyrazole-5-carboxamide]", "values": [{"measurement": "ALOMY Obsd.", "setting": "blackgrass (ALOMY); 62 g a.i./ha", "result": 15}, {"measurement": "ALOMY Obsd.", "setting": "blackgrass (ALOMY); 125 g a.i./ha", "result": 13}, {"measurement": "ZEAMD Obsd.", "setting": "corn (ZEAMD); 62 g a.i./ha", "result": 25}, {"measurement": "ZEAMD Obsd.", "setting": "corn (ZEAMD); 125 g a.i./ha", "result": 65}, {"measurement": "AMARE Obsd.", "setting": "pigweed (AMARE); 62 g a.i./ha", "result": 47}, {"measurement": "AMARE Obsd.", "setting": "pigweed (AMARE); 125 g a.i./ha", "result": 68}, {"measurement": "ABUTH Obsd.", "setting": "velvetleaf (ABUTH); 62 g a.i./ha", "result": 17}, {"measurement": "ABUTH Obsd.", "setting": "velvetleaf (ABUTH); 125 g a.i./ha", "result": 18}, {"measurement": "DIGSA Obsd.", "setting": "large crabgrass (DIGSA); 62 g a.i./ha", "result": 5}, {"measurement": "DIGSA Obsd.", "setting": "large crabgrass (DIGSA); 125 g a.i./ha", "result": 15}, {"measurement": "observed effect of mixture compared with additive effect expected from Colby's Equation", "setting": "large crabgrass (DIGSA); mixture with diuron", "result": "greater than additive"}, {"measurement": "observed effect of mixture compared with additive effect expected from Colby's Equation", "setting": "large crabgrass (DIGSA); mixture with terbacil", "result": "greater than additive"}, {"measurement": "CHEAL Obsd.", "setting": "lambsquarters (CHEAL); 62 g a.i./ha", "result": 40}, {"measurement": "CHEAL Obsd.", "setting": "lambsquarters (CHEAL); 125 g a.i./ha", "result": 55}, {"measurement": "SETFA Obsd.", "setting": "giant foxtail (SETFA); 62 g a.i./ha", "result": 28}, {"measurement": "SETFA Obsd.", "setting": "giant foxtail (SETFA); 125 g a.i./ha", "result": 32}]}
{"smiles": "CCn1nc(C(C)(C)C)cc1C(=O)Nc1cccc(C(N)=O)n1", "note": "[Compound 162, 6-[[[3-(1,1-dimethylethyl)-1-ethyl-1H-pyrazol-5-yl]carbonyl]amino]-2-pyridinecarboxamide]", "values": [{"measurement": "Plant response rating (0-100), Kochia", "setting": "kochia; Postemergence, 62 g ai/ha", "result": 100}, {"measurement": "Plant response rating (0-100), Kochia", "setting": "kochia; Postemergence, 125 g ai/ha", "result": 100}, {"measurement": "Plant response rating (0-100), Kochia", "setting": "kochia; Postemergence, 250 g ai/ha", "result": 100}, {"measurement": "Plant response rating (0-100), Kochia", "setting": "kochia; Postemergence, 500 g ai/ha", "result": 100}, {"measurement": "Plant response rating (0-100), Kochia", "setting": "kochia; Preemergence, 62 g ai/ha", "result": 60}, {"measurement": "Plant response rating (0-100), Kochia", "setting": "kochia; Preemergence, 125 g ai/ha", "result": 100}, {"measurement": "Plant response rating (0-100), Kochia", "setting": "kochia; Preemergence, 250 g ai/ha", "result": 100}, {"measurement": "Plant response rating (0-100), Kochia", "setting": "kochia; Preemergence, 500 g ai/ha", "result": 100}, {"measurement": "Plant response rating (0-100), Canarygrass", "setting": "littleseed canarygrass; Postemergence, 62 g ai/ha", "result": 70}, {"measurement": "Plant response rating (0-100), Canarygrass", "setting": "littleseed canarygrass; Postemergence, 125 g ai/ha", "result": 70}, {"measurement": "Plant response rating (0-100), Canarygrass", "setting": "littleseed canarygrass; Postemergence, 250 g ai/ha", "result": 100}, {"measurement": "Plant response rating (0-100), Canarygrass", "setting": "littleseed canarygrass; Postemergence, 500 g ai/ha", "result": 100}, {"measurement": "Plant response rating (0-100), Canarygrass", "setting": "littleseed canarygrass; Preemergence, 62 g ai/ha", "result": 100}, {"measurement": "Plant response rating (0-100), Canarygrass", "setting": "littleseed canarygrass; Preemergence, 125 g ai/ha", "result": 100}, {"measurement": "Plant response rating (0-100), Canarygrass", "setting": "littleseed canarygrass; Preemergence, 250 g ai/ha", "result": 100}, {"measurement": "Plant response rating (0-100), Canarygrass", "setting": "littleseed canarygrass; Preemergence, 500 g ai/ha", "result": 100}]}
{"smiles": "CCc1nn(C(C)(C)C)cc1C(=O)Nc1cc(C(=O)N(CC)CC)ccc1F", "note": "[Compound 223]", "values": [{"measurement": "Plant response rating (0-100), Kochia", "setting": "kochia; Postemergence, 125 g ai/ha", "result": 75}, {"measurement": "Plant response rating (0-100), Kochia", "setting": "kochia; Preemergence, 125 g ai/ha", "result": 75}, {"measurement": "Plant response rating (0-100), Canarygrass", "setting": "littleseed canarygrass; Postemergence, 125 g ai/ha", "result": 40}, {"measurement": "Plant response rating (0-100), Canarygrass", "setting": "littleseed canarygrass; Preemergence, 125 g ai/ha", "result": 50}, {"measurement": "Plant response rating (0-100), Buckwheat, Wild", "setting": "wild buckwheat; Postemergence", "result": 40}, {"measurement": "Plant response rating (0-100), Buckwheat, Wild", "setting": "wild buckwheat; Preemergence", "result": 55}, {"measurement": "Plant response rating (0-100), Thistle", "setting": "Russian thistle; Postemergence", "result": 60}, {"measurement": "Plant response rating (0-100), Thistle", "setting": "Russian thistle; Preemergence", "result": 60}, {"measurement": "Plant response rating (0-100), Windgrass", "setting": "windgrass; Postemergence", "result": 50}, {"measurement": "Plant response rating (0-100), Windgrass", "setting": "windgrass; Preemergence", "result": 100}]}
